From US4610977A, “N-alkyl and N-benzyl adriamycin derivatives” (The University of Tennessee Research Corporation, priority 1985, dated 1986)
Read-outs that look alike come from different tables or passages of the source.

Key:
[1] = system: malignant tumors; conditions: cited from earlier work; for Clinical antitumor effectiveness: certain malignant tumors, e.g. induction of remission in acute leukemia; for Toxicities accompanying chemotherapy: limit effectiveness, particularly long-term use
[2] = system: CCRF-CEM cell line; test: Growth inhibition of CCRF-CEM cells in culture, 48 hours continuous drug exposure; assay type: cell-based, child with lymphoblastic leukemia; conditions: Homo sapiens
Description: The toxicity and therapeutic effectiveness of the new compounds and active agents of the present invention are shown by in vitro assays and by in vivo evaluations in mice. The in vitro assays measure the growth inhibiting activity of the materials against the CCRF-CEM cell line in culture. The cell line was derived from the peripheral blood of a child with lymphoblastic leukemia as described by Foley et al., Cancer, Volume 18, page 522 et seq. (1965), and the assays were carried out by the procedure of Foley and Lazarus, Biochem. Pharmacol., Vol. 16, pages 659 et seq. (1967), the compounds being dissolved in dimethyl sulfoxide and diluted into cell culture media to give a final dimethyl sulfoxide concentration of 1%, the results being reported in terms of the dose in micromoles per liter required to inhibit growth of the cultures by 50% relative to control cultures to which no drug had been added (ID50).
^1 Concentration required to inhibit growth of cultures by 50%
relative to untreated controls; 48 hours continuous drug exposure.

[3] = in vivo; conditions: mouse, ip
Text: (§1) The in vivo evaluations were made by preparing a 0.01 to 0.4% by weight solution of the active agent in an aqueous solution of polyethoxylated castor oil (10% by volume) and ethanol (10% by volume) as a carrier and injecting the dosage intraperitoneally. The evaluations were made of the antitumor activity against the murine P 388 and L1210 leukemias in B6D2F1 male mice essentially according to standard National Cancer Institute protocols as set forth by Geran et al., Cancer Chemotherap. Rep., Part 3, Volume 3, pages 1 et seq.

[4] = In vivo antitumor activity against murine L1210 leukemia in B6D2F1 male mice; conditions: mouse, in vivo, ip
Text: as §1

[5] = system: murine L1210 leukemia; test: as above; conditions: L1210, qd 1-4; for % ILS (percent median increase in life span relative to untreated controls): at optimal dose (Examples 1/2/3: 12.5/20.0/25.0, adriamycin 3.0 mg/kg); for % ILS (percent median increase in life span relative to untreated controls) / LTS (tumor free long term survivors): ip; for LTS (tumor free long term survivors): at optimal dose, day of sacrifice: Examples 1-3 42
Text: as §1

[6] = 48 hours continuous drug exposure, final DMSO 1%, read-out: ID50 (concentration required to inhibit growth of cultures by 50% relative to untreated controls)
[7] = 48 hours continuous drug exposure, read-out: ID50, corresponding compounds having different N-substitution

For `COc1cccc2c1C(=O)c1c(O)c3c(c(O)c1C2=O)C[C@@](O)(C(C)=O)C[C@@H]3O[C@H]1C[C@H](N)[C@H](O)[C@H](C)O1` [daunomycin], the Clinical antitumor effectiveness [1] is given as “effective clinically against certain malignant tumors” and the Toxicities accompanying chemotherapy [1] is given as “a variety of toxicities”.

With `CCCCC(=O)OCC(=O)[C@]1(O)Cc2c(O)c3c(c(O)c2[C@@H](O[C@H]2C[C@H](NCc4ccccc4)[C@H](O)[C@H](C)O2)C1)C(=O)c1c(OC)cccc1C3=O` [Example 1, N-Benzyladriamycin-14-valerate] the IC50 [2, 6] was 1000 nM, the MTD [3] was 10 mg/kg and the MTD [4] was 12.5 mg/kg. For the same compound, the “% ILS (percent median increase in life span relative to untreated controls)” value [5] was “> +350%” and the “LTS (tumor free long term survivors)” value [5] was 5/7.

With `COc1cccc2c1C(=O)c1c(O)c3c(c(O)c1C2=O)C[C@@](O)(C(=O)CO)C[C@@H]3O[C@H]1C[C@H](N)[C@H](O)[C@H](C)O1` [Adriamycin] the MTD [4] was 3 mg/kg, the “All animals dead by day” value ([5]; adriamycin 3.0 mg/kg, footnote 4) was no more than 22 days and the “% ILS (percent median increase in life span relative to untreated controls)” value [5] was “+90%”. For the same compound, the “LTS (tumor free long term survivors)” value [5] was 0/7, the Clinical antitumor effectiveness [1] was “effective clinically against certain malignant tumors” and the “Clinical efficacy against certain solid tumors” value ([1]; certain solid tumors) was “has shown clinical efficacy against certain solid tumors”. For the same compound, the Toxicities accompanying chemotherapy [1] was “a variety of toxicities”.

Compound `CCCCC(=O)OCC(=O)[C@]1(O)Cc2c(O)c3c(c(O)c2[C@@H](O[C@H]2C[C@H](N(CCC)CCC)[C@H](O)[C@H](C)O2)C1)C(=O)c1c(OC)cccc1C3=O` [Example 2, N,N-Di(n-propyl)adriamycin-14-valerate] has an IC50 [2, 6] of 1900 nM, an MTD [3] of 20 mg/kg and an MTD [4] of 20 mg/kg. For the same compound, the “% ILS (percent median increase in life span relative to untreated controls)” value [5] was “> +350%” and the “LTS (tumor free long term survivors)” value [5] was 4/7.

`COc1cccc2c1C(=O)c1c(O)c3c(c(O)c1C2=O)C[C@@](O)(C(=O)CO)C[C@@H]3O[C@H]1C[C@H](NCc2ccccc2)[C@H](O)[C@H](C)O1` [Mono-N--benzyl] gave an MTD [3] of 5 mg/kg.

Work on `CCCCC(=O)OCC(=O)[C@]1(O)Cc2c(O)c3c(c(O)c2[C@@H](O[C@H]2C[C@H](N(CC)CC)[C@H](O)[C@H](C)O2)C1)C(=O)c1c(OC)cccc1C3=O` [diethyl] yielded an IC50 [2, 7] of 300 nM and an MTD [3] of 8 mg/kg.

For `CCCCC(=O)OCC(=O)[C@]1(O)Cc2c(O)c3c(c(O)c2[C@@H](O[C@H]2C[C@H](N(CCCC)CCCC)[C@H](O)[C@H](C)O2)C1)C(=O)c1c(OC)cccc1C3=O` [Example 3, N,N-Di(n-butyl)adriamycin-14-valerate], the IC50 [2, 6] was 2100 nM, the MTD [3] was 30 mg/kg and the MTD [4] was 25 mg/kg. The “% ILS (percent median increase in life span relative to untreated controls)” value [5] was “> +350%” and the “LTS (tumor free long term survivors)” value [5] was 5/7.

With `CCCCN(CCCC)[C@H]1C[C@H](O[C@H]2C[C@](O)(C(=O)CO)Cc3c(O)c4c(c(O)c32)C(=O)c2c(OC)cccc2C4=O)O[C@@H](C)[C@H]1O` [Di-n-butyl] the MTD [3] was 25 mg/kg.

With `CCCCC(=O)OCC(=O)[C@]1(O)Cc2c(O)c3c(c(O)c2[C@@H](O[C@H]2C[C@H](N(Cc4ccccc4)Cc4ccccc4)[C@H](O)[C@H](C)O2)C1)C(=O)c1c(OC)cccc1C3=O` [dibenzyl] the IC50 ([2]; 48 h, read-out: ID50, corresponding compounds having different N-substitution) was greater than 5000 nM and the MTD [3] was 20 mg/kg.

For `CCCCC(=O)OCC(=O)[C@]1(O)Cc2c(O)c3c(c(O)c2[C@@H](O[C@H]2C[C@H](NCCC)[C@H](O)[C@H](C)O2)C1)C(=O)c1c(OC)cccc1C3=O` [mono-n-propyl, N mono(n-propyl) adriamycin-14-valerate], the IC50 [2, 7] was 170 nM and the MTD [3] was 15 mg/kg.

`CCCCC(=O)OCC(=O)[C@]1(O)Cc2c(O)c3c(c(O)c2[C@@H](O[C@H]2C[C@H](N(C)C)[C@H](O)[C@H](C)O2)C1)C(=O)c1c(OC)cccc1C3=O` [dimethyl] showed an IC50 [2, 7] of 20 nM.

`CCCN(CCC)[C@H]1C[C@H](O[C@H]2C[C@](O)(C(=O)CO)Cc3c(O)c4c(c(O)c32)C(=O)c2c(OC)cccc2C4=O)O[C@@H](C)[C@H]1O` [Di-n-propyl] gave an MTD [3] of 20 mg/kg.

With `CCCCCCN(CCCCCC)[C@H]1C[C@H](O[C@H]2C[C@](O)(C(=O)COC(=O)CCCC)Cc3c(O)c4c(c(O)c32)C(=O)c2c(OC)cccc2C4=O)O[C@@H](C)[C@H]1O` [di-n-hexyl] the IC50 [2, 7] was 2500 nM and the MTD [3] was 40 mg/kg.
